Laboratory results as given in patent US11969408B2, “Method for improving mitophagy in subjects” (Amazentis SA, priority 2017, dated 2024).

What was measured:
Assay type in all cases: in vivo, human
[1] = system: pyruvate, lactate and glucose in plasma; assay: Plasma metabolomics: pyruvate, lactate, glucose plasma levels; settings: 1000 mg cohort, day −1 to day 28
Experimental: Blood sampling was performed for analysis on plasma at the exact time-points described in the table below: Blood handling procedures: at each time point indicated in the table, a 6 mL blood sample was drawn into K2-EDTA coated tube. The blood samples were gently inverted a few times for complete mixing with the anticoagulant. The exact time of sample collection was recorded on the eCRF. Within 30 minutes following blood collection, each blood sample was centrifuged at 1500 g for 10 minutes at 4° C. 30 minutes after the centrifugation, the top layer of human plasma was transferred into 2 pre-labelled polypropylene tubes, containing approximately 1500 μL of plasma. Blood cells were not transferred. All sample tubes were clearly and appropriately labelled. Tubes were capped immediately from each time point and the plasma was be frozen in an upright position at approximately −80° C. for storage. Measurement of metabolites: Samples were extracted and split into equal parts for analysis on the LC/MS/MS and Polar LC platforms. Proprietary software was used to match ions to an in-house library of standards for metabolite identification and for metabolite quantitation by peak area integration. A total of 781 metabolites were quantified. Metabolomics is the study of known measurable metabolites in a sample. […]

[2] = system: genes associated with autophagy and mitophagy, mitochondrial biogenesis and dynamics, and fatty acid oxidation in skeletal muscle biopsies; assay: rtPCR analysis of gene expression levels in skeletal muscle biopsies
Experimental: Muscle biopsies were collected before the meal from the vastus lateralis muscle of the right leg in order to perform ex vivo measurements. Muscle biopsies were collected on Day −1 and Day 28 at pre-dose under fasted state using the Bergström biopsy needle technique. The minimal amount of each muscle tissue sample was approximately 50 mg. One third of the tissue was used for gene expression (≈50 mg), and was further divided into two equal portions: one portion for RNA analysis (≈25 mg) and one portion for DNA analysis (≈25 mg), both in a Safe-lock Tubes 2.0 ml, Eppendorf (part no. 0030.120.094). Muscle tissue was snap frozen using liquid nitrogen immediately after collection and further, long term storage will be in a −80° C. freezer. The mRNA was analysed by microarray. Quantification of mtDNA over nuclear DNA provided another measure of mitochondrial abundance. The shipment was done in dry ice by specialized carrier. Temperatures were monitored using data logger during all transport. The method used has been validated according to good clinical laboratory practices (GCLP) and ICH guideline Q2(R1) (Validation of analytical procedures) by the corresponding service provider. Every sample was analysed in at least technical duplicates for housekeeping and target genes. A Ct value (threshold cycle), corresponding to the cycle at which the fluorescence signal reaches the amplification phase, was determined for every technical replicate and gene. The method of the 2^−ΔΔCt (Livak, K., J., and Schmittgen, T. D., Methods, 2001) was then applied to determine the relative expression of each target gene. rtPCR analysis was carried out on skeletal muscle biopsies of human subjects administered urolithin A or placebo daily for 28 days to determine the expression levels of specific genes associated with autophagy and mitophagy (LAMP2, ULK1, PIK3C3, MAP1LC3B, SQSTM1, PARK2), mitochondrial biogenesis and dynamics (SIRT1, PPARGC1A, PPARA, ESRRA, MFN1, MFN2, OPA1), and fatty acid oxidation (CPT1B, FABP3). FIG. 6 provides bar graphs showing the fold-change in gene expression levels from day −1 to day 28 for each gene for patients administered 250 mg/day or 1000 mg/day urolithin A, over placebo. The bar graphs represent gene expression data, expressed as a percentage of change over placebo, i.e. a value of 0% means that there is no difference between the dose and the placebo group while a value of 100% means that there is an increase in 100% over placebo value.

[3] = Steady state plasma levels of total Urolithin A over 4-week dosing; settings: Day 31 and Day 32
Experimental: A double-blind, randomized, placebo controlled clinical trial was conducted in healthy elderly to establish the steady state levels of Urolithin A in plasma. Elderly subjects (61-82 years) (n=9), participated in each group of dosing. The subjects met all the inclusion and exclusion criteria of the study and signed informed consent. The subjects were overnight fasted and the plasma was collected in the morning before breakfast to assess steady state levels. Subjects were given a dose of Urolithin or placebo each morning for the 28 day trial. The urolithin A was given as softgel capsules containing 250 mg of Urolithin A in each capsule. Plasma samples were collected for assessment of Urolithin A steady state concentrations in the 4-week Urolithin A study at the following time points (Day 0, Day 7, Day 14, Day 28, Day 29, Day 31, and Day 32). […] On day 28 the subjects were admitted to a Phase 1 clinical trial unit and the kinetics of Urolithin A absorption, and elimination following multiple 4-week dosing were followed until 96 hours following the last dosing on Day 28. Plasma was collected at the following time-points post last dosing with Urolithin A on Day 28: pre-dose, 1 hr, 2 hr, 4 hr, 6 hr, 8 hr, 12 hr, 24 hr, 72 hr and 96 hr. […] The exact time of sample collection was recorded on the eCRF (electronic case report from). […]

[4] = 1000 mg/day for 28 days, over placebo, P<0.05 Dunnett post-hoc

O=c1oc2cc(O)ccc2c2ccc(O)cc12 [Urolithin A]
pyruvate, lactate and glucose levels in plasma [1]: no significant change | Ulk1 gene expression change ([2]; 1000 mg vs placebo, ANOVA p=0.0524, Dunnett p=0.0180): close to significant | Ppargc1a gene expression change ([2]; 1000 mg vs placebo, ANOVA p=0.1026, Dunnett p=0.0673): close to significant | Cpt1b gene expression change ([2]; 1000 mg vs placebo, ANOVA p=0.1362, Dunnett p=0.0805): close to significant | Park2 gene expression change ([2]; 1000 mg vs placebo, ANOVA p=0.2504, Dunnett p=0.1500): close to significant | expression of genes associated with autophagy, mitochondrial function, and/or fatty acid oxidation ([2]; 1000 mg/day for 28 days, day 28 vs day −1, over placebo): upregulation | FABP3 gene expression (fatty acid oxidation-related) [2, 4]: significant upregulation | LAMP2 gene expression (autophagy/mitophagy-related) [2, 4]: significant upregulation | steady state levels after the end of the 4-week UA administration [3]: gradually declined
